Common to all, as to assay: NCI anticancer screen, dose series, 48 h
For assay [1], the system named is NCI-H226.
In assay [2] the test system is LOX IMVI.
For assay [3], the system named is UO-31.
Assay [4] relates to SF-539.
The test system of assay [5] is NCI-H522.
Assay [6] concerns K562.
The test system of assay [7] is HOP-62.
In assay [8] the test system is DU-145.
Assay [9] has as its system SK-MEL-28.
The subject of assay [10] is HT-29.
Assay [11] has as its system MCF7.
For assay [12], the system named is OVCAR-4.
In assay [13] the test system is NCI/ADR-RES.
The subject of assay [14] is ACHN.
Assay [15] concerns OVCAR-5.
In assay [16] the test system is CCRF-CEM.
The subject of assay [17] is MOLT-4.
The subject of assay [18] is Hs-578T.
Assay [19] concerns CAKI-1.
Assay [20] concerns M14.

Ten compounds from ChEMBL document CHEMBL1201862, “PubChem BioAssay data set” (2004) can be followed below.

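Tested at 5 concentrations; 48 h exposure; 96-well plates; endpoints linearly interpolated, else capped at highest concentration. GI50: concentration for 50% inhibition of growth.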 Active and inactive are the calls of the source. No stated cut-off is given here; in the data, active = GI50 up to about 1.1 µM and inactive = higher.

As to `c1cc(CSSCc2ccncc2)ccn1`, the GI50 in assay [1] is 30.6 µM (inactive); in assay [2] it was 10.6 µM (inactive); in assay [3], 8.99 µM (inactive); in assay [4], 8.02 µM (inactive); in [5], 12.9 µM (inactive); in [6], 14.8 µM (inactive). Further, the GI50 is 46.2 µM (inactive) in assay [7]; 28.9 µM (inactive) in assay [8]; 64 µM (inactive) in [9]; 24.2 µM (inactive) in assay [10]; 32.8 µM (inactive) in assay [11]; > 74.3 µM (inactive) in [12]. The GI50 in assay [13] is 30.5 µM (inactive); in assay [14], 42.2 µM (inactive); in assay [15], 55.5 µM (inactive); in assay [16] it was 1.24 µM (inactive); in [17], 3.21 µM (inactive); in [18], 29.2 µM (inactive). The GI50 in assay [19] is 29.5 µM (inactive); in assay [20], 11.3 µM (inactive).
Regarding `O=C(O)CCCSc1nc2ccccc2s1`, the GI50 in assay [1], in assay [2], in assay [3], in [4], in [5] and in assay [6] was > 100 µM (inactive) in each case. The GI50 in [7], in [8], in assay [9], in assay [10], in assay [11] and in assay [12] was > 100 µM (inactive) in each case. Also, the GI50 in assay [13], in [14], in assay [15], in assay [16], in assay [17] and in assay [18] was > 100 µM (inactive) in each case. The GI50 in assay [19] and in assay [20] was > 100 µM (inactive) in each case.
Turning to `CCCCCC(=O)Nc1[nH]nnc1C(N)=O`, the GI50 in [1], in assay [2], in assay [3], in assay [4], in [5] and in assay [6] was > 100 µM (inactive) throughout. Also, the GI50 in assay [7], in [8], in assay [9], in assay [10], in [11] and in assay [12] was > 100 µM (inactive) each time. The GI50 in [13], in assay [14], in [15], in assay [16], in [17] and in assay [18] was > 100 µM (inactive) each time. In addition, the GI50 in assay [19] and in [20] was > 100 µM (inactive) throughout.
On to `CCOC(=O)CC[C@@H](NC(=O)c1ccc(NCc2ccc3nc(OC)c(OC)nc3c2)cc1)C(=O)OCC`, for which the GI50 is 58.7 µM (inactive) in [1]; 38.9 µM (inactive) in assay [2]; 26.5 µM (inactive) in assay [3]; 18.5 µM (inactive) in [4]; 19.9 µM (inactive) in assay [5]; 46.8 µM (inactive) in assay [6]. The GI50 in assay [7] was > 77.4 µM (inactive); in assay [8], 58.2 µM (inactive); in assay [9] it was 16.1 µM (inactive); in [10] it was > 72.8 µM (inactive); in [11], 25.5 µM (inactive); in assay [12] it was 38.9 µM (inactive). Besides, the GI50 in assay [13] was > 100 µM (inactive); in assay [14] it was 22.3 µM (inactive); in assay [15], > 100 µM (inactive); in [16], 32.6 µM (inactive); in assay [17], 16.6 µM (inactive); in assay [18], > 29.9 µM (inactive). The results for the GI50 in assay [19] and in assay [20] were > 83.9 µM (inactive) and 16.3 µM (inactive), respectively.
For the compound `C[n+]1c2ccc(Cl)cc2nc2cc(-c3ccccc3)ccc21`, the GI50 in assay [1] was 19.1 µM (inactive); in assay [2], 5.69 µM (inactive); in assay [3], 21.3 µM (inactive); in [4] it was 15.8 µM (inactive); in assay [5], 16 µM (inactive); in [6], 7.13 µM (inactive). For the same compound, the GI50 is 23 µM (inactive) in assay [7]; 22.5 µM (inactive) in [8]; 20.1 µM (inactive) in assay [9]; 2.9 µM (inactive) in assay [10]; 1.32 µM (inactive) in assay [11]; 18.5 µM (inactive) in assay [12]. Moreover, the GI50 in assay [13] is 33.2 µM (inactive); in assay [14], 18.9 µM (inactive); in assay [15], 24.1 µM (inactive); in assay [16], 60.7 µM (inactive); in assay [17], 1.61 µM (inactive); in assay [18] it was 25.5 µM (inactive). Moreover, the GI50 was 16.4 µM (inactive) in [19] and 4.65 µM (inactive) in assay [20].
In the case of `O=C(Nc1nnc(-c2ccc(Cl)cc2)o1)C(SC(=S)N1CCCCC1)c1ccccc1` (stereo not given), the GI50 is 32.7 µM (inactive) in assay [1]; 6.12 µM (inactive) in assay [2]; 10.5 µM (inactive) in assay [3]; 30 µM (inactive) in assay [4]; 17.6 µM (inactive) in assay [5]; 11.6 µM (inactive) in assay [6]. The GI50 in assay [7] was 25.9 µM (inactive); in [8], 25.7 µM (inactive); in [9], 18.1 µM (inactive); in assay [10], 22.2 µM (inactive); in assay [11], 18.7 µM (inactive); in assay [12], 22 µM (inactive). The GI50 in assay [13] is 4.84 µM (inactive); in assay [14] it was 15.7 µM (inactive); in assay [15], 21.5 µM (inactive); in assay [16], 4.71 µM (inactive); in assay [17], 1.31 µM (inactive); in assay [18], 26.2 µM (inactive). For the same compound, the GI50 is 13.6 µM (inactive) in [19] and 13.2 µM (inactive) in [20].
For `CC(=O)c1cccc2c1CC1(C2)Cc2ccc3c(c2C1=O)CCC3` (stereo not given), the GI50 in assay [1] was 23.9 µM (inactive); in [2], 27.5 µM (inactive); in assay [3], 30.3 µM (inactive); in assay [4], 82.2 µM (inactive); in assay [5], 17 µM (inactive); in assay [6], 21.6 µM (inactive). The GI50 in assay [7] was 54 µM (inactive); in [8], 79.1 µM (inactive); in assay [9] it was 42.1 µM (inactive); in [10], 23.1 µM (inactive); in assay [11] it was 9.57 µM (inactive); in assay [12], 29.5 µM (inactive). Besides, the GI50 in [13] is 12.7 µM (inactive); in assay [14], 47.9 µM (inactive); in assay [15], 53.6 µM (inactive); in assay [16], 34.8 µM (inactive); in [17], 25.3 µM (inactive); in assay [18] it was 32.7 µM (inactive). For the same compound, the GI50 in [19] was 48 µM (inactive); in assay [20], 46.7 µM (inactive).
Regarding `COCn1c2ccc(OC(C)=O)cc2c2c(=O)oc(C)nc21`, the GI50 in assay [1], in [2], in [3], in [4], in [5] and in assay [6] was > 100 µM (inactive) in each case. The GI50 in assay [7] is > 100 µM (inactive); in [8], > 100 µM (inactive); in [9] it was > 100 µM (inactive); in assay [10], 0.497 µM (active); in [11], > 100 µM (inactive); in [12] it was > 100 µM (inactive). Also, the GI50 in assay [13], in assay [14], in assay [15], in assay [16], in assay [17] and in assay [18] was > 100 µM (inactive) throughout. The GI50 in [19] was 57.7 µM (inactive); in assay [20] it was > 100 µM (inactive).
Regarding `CC(C)[C@@H]1NC(=O)[C@H]2N=C(O[C@@H]2C)[C@@H]2CCCN2C(=O)[C@H](Cc2ccccc2)NC(=O)[C@@H]2CSC(=N2)[C@@H](Cc2ccccc2)NC(=O)[C@@H]2CSC1=N2`, the GI50 in assay [1] is 38.5 µM (inactive); in [2], 23.7 µM (inactive); in assay [3] it was > 50 µM (inactive); in assay [4] it was 17.5 µM (inactive); in assay [5] it was 29.1 µM (inactive); in assay [6], 9.38 µM (inactive). For the same compound, the GI50 in assay [7] is > 50 µM (inactive); in [8] it was > 50 µM (inactive); in assay [9], > 50 µM (inactive); in assay [10], 38.8 µM (inactive); in [11], 18.9 µM (inactive); in assay [12], 19.8 µM (inactive). The GI50 in assay [13] is > 50 µM (inactive); in assay [14], > 50 µM (inactive); in [15], > 50 µM (inactive); in [16], 16.3 µM (inactive); in assay [17], 26.8 µM (inactive); in [18], 32.8 µM (inactive). In addition, the GI50 in assay [19] and in assay [20] was > 50 µM (inactive) throughout.
Consider `O=CN1CCN(C(=O)c2ccco2)C1=S`, for which the GI50 in assay [1] was 22.9 µM (inactive); in assay [2], 3.72 µM (inactive); in [3], 4.49 µM (inactive); in [4], 4.38 µM (inactive); in assay [5], 3.67 µM (inactive); in assay [6] it was 3.25 µM (inactive). In addition, the GI50 was 13.2 µM (inactive) in assay [7]; 3.08 µM (inactive) in [8]; 15.9 µM (inactive) in [9]; 11.3 µM (inactive) in assay [10]; 2.7 µM (inactive) in assay [11]; 19.7 µM (inactive) in assay [12]. The GI50 in assay [13] was 23.4 µM (inactive); in assay [14], 10 µM (inactive); in assay [15] it was 19.4 µM (inactive); in assay [16], 3.7 µM (inactive); in assay [17] it was 8.24 µM (inactive); in assay [18] it was 22 µM (inactive). Besides, the GI50 in [19] was 5.38 µM (inactive); in [20], 8.85 µM (inactive).
